Test results published in patent US7956060B2, “Pyrimidine derivative compound” (Kyowa Hakko Kirin Co., Ltd., priority 2004, dated 2011).

System: human acute myeloid leukemia cell line MV-4-11
Test: Cytostatic activity on leukemia cell line (WST-1 assay)
Type: cell-based
Details: MV-4-11 cells, test compound 10 μmol/L, 72 hours
Description: The cytostatic rate (%) of a test compound on human acute myeloid leukemia cell line MV-4-11 was determined in the following manner.
Each cell was cultured using Roswell Park Memorial Institute's Medium (RPMI) 1640 (Gibco, Catalog No. 11875-093) containing 10% fetal bovine serum (Gibco, Catalog. No. 10437-028) and 1% penicillin/streptomycin (1:1) (Gibco, Catalog No. 15140-122). Each 80 μL of the MV-4-11 cell having a concentration of 7.5×10^4 cells/mL (or K562 cell having a concentration of 2.5×10^4 cells/mL) was inoculated to wells of a TC MICROWELL 96U plate (Nalge Nunc International, Catalog No. 163320) and was cultured in a 5% carbon dioxide gas incubator at 37° C. for 4 hours. As a blank, only RPMI medium (80 μL) was added to a well. […] Then, the absorbances at 450 nm (reference wavelength: 690 nm) were determined with a microplate spectrophotometer SPECTRA max 340PC (Molecular Devices Corporation). The relative growth (%) of a well to which the test compound had been added was determined while setting the absorbance of a well to which not the test compound but DMSO alone had been added (control) at 100% and that of a well containing RPMI medium alone at 0%. The cytostatic rate (%) of the test compound was determined by subtracting the calculated relative growth from 100.

SMILES: CCNc1nc(NCCc2ccncc2)ncc1-c1nnc(CN2CCN(C)CC2)o1 [Compound 4-32]
- cytostatic rate MV-4-11 (%, 10 μmol/L): 99%
